Assay results published in EP3597650B1, “ALDOSE REDUCTASE INHIBITORS AND USES THEREOF” (The Trustees of Columbia University in the City of New York, priority 2010, dated 2012).

How the values were obtained:
[1] = molecular target: human recombinant aldose reductase (Homo sapiens, UniProt P15121); test: biochemical
Procedure: The rcductasc activity of Compound A and zopolrestat were spectrophotometrically assayed by following the decrease of NADPH at 25°C for 4 min as described in Sato, S. (1992), "Rat kidney aldose reductase and aldehyde reductase and polyolproduction in rat kidney" Am. J. Physiol. 263, F799.F805, incorporated by reference herein in its entirety. [drawing 59]
Briefly, the reaction mixture (total volume 1 ml) contained 0.1 mM NADPH, 100 mM substrate (DL-glyceraldehyde or L-xylose) and human recombinant aldose reductase (100 mU) in 0.1 M phosphate buffer, pH 6.2. The head to head experiment was carried out in a microplate assay for AR inhibition using D-Glyceraldehyde and NADPH and the absorbance changes were monitored at 340nm and % inhibition was calculated for ARIs at concentrations ranging from 0.1 nM to 100 µM (Table 2 and Figure 2). Data is presented as mean ± standard deviation and is an average of 5 separate runs. The reaction was started by adding the substrate (glyceraldehyde or xylose) as well as the same reaction mixture in which the substrate replaced by deionized water was used as a control. One enzyme unit (U) was defined as the activity consuming 1 µmole of NADPH per min at 25 °C. Table 2. Aldose Reductase Activity for Zopolrestat and Compound A.

[2] = Solubility in water, LC-MS absorbance peak area at 254 nm; format: physicochemical; conditions: for Area (Integration of Absorbance Peaks): water pH 7.1, ambient temperature, 254 nm
Procedure: Each sample of Compound A & zopolrestat were placed, separately, in water (MQW ultra nanopure) at ambient temperature and vortexed for 3 minutes. The aliquots were then filtered through a tightly-packed cotton plug (placed in a pipette) to remove any residual solids. The attempted concentrations of the respective solutions of Compound A and zopolrestat made were 0.05 mg/mL, 0.1 mg/mL, 0.5 mg/mL, 1.0 mg/mL, 5.0 mg/mL, and 10.0 mg/mL. The pH of the water used was 7.1 (measured electronically by an Orion perpHect LogR Meter Model # 370).
The filtered samples were run through a binary gradient (program: 5%-100% MeCN over 30 mins) on a LC-MS (Shimadzu LCMS-2010A Liquid Chromatography Mass Spectrometer, reverse-phase column). A 5 µL volume of each sample solution was injected for each run. Each trace contained a peak (for Compound A, TR approx. 14.070 mins; for zopolrestat, TR approx. 16.666 mins) measured at a wavelength of 254 nm for which the respective parent ion masses were observed.
By comparing the absorbance areas under the peaks corresponding to Compound A & zopolrestat in each water solution made (Table 1), a solubility curve for each compound was generated (Fig. 1). […] Table 1. Integration of Absorbance Peaks for Various Concentrations of Compounds.

[3] = Solubility in Krebs-Henseleit buffer; format: physicochemical; conditions: Krebs-Henseleit buffer with glucose, palmitate, bovine serum albumin, insulin
[4] = tested on: isolated rat heart; test: Ex vivo isovolumic isolated rat heart, ischemia reperfusion (I/R) injury; conditions: 100 nM in perfusate; 20 min zero-flow ischemia, 60 min reperfusion
Procedure: Experiments were performed using an isovolumic isolated rat heart preparation as as described by Hwang YC, Sato S, Tsai JY, Yan S, Bakr S, Zhang H, Oates PJ , Ramasamy R (2002), "Aldose reductase activation is a key component of myocardial response to ischemia," Faseb J. 16, 243-245 and Ramasamy R, Hwang YC, Whang J , Bergmann SR (2001), "Protection of ischemic hearts by high glucose is mediated, in part, by GLUT-4," American Journal of Physiology. 281, H290-297.
Male Wistar rats (300.350 g, 3 to 4 months old) were anesthetized with a mixture of ketamine (80 mg/kg) and xylazine (10 mg/kg). After deep anesthesia was achieved, hearts were rapidly excised, placed into iced saline, and retrogradely perfused at 37 °C in a non-recirculating mode through the aorta at a rate of 12.5 ml/min. Hearts were perfused with modified Krebs-Henseleit buffer containing (in mM) NaCl 118, KCl 4.7, CaCl2 2.5, MgCl2 1.2, NaHCO3 25, glucose 5, palmitate 0.4, bovine serum albumin 0.4, and 70 mU/L insulin. […] Left ventricular developed pressure (LVDP) and left ventricular end diastolic pressure (LVEDP) were measured using a latex balloon in the left ventricle. LVDP, heart rate, and coronary perfusion pressure were monitored continuously on a ADI recorder. […]
Briefly, isolated perfused hearts were subjected to ischemia reperfusion (I/R) injury and the measures of cardiac injury and cardiac function monitored. […]

[5] = attempted concentration 0.05 mg/mL
[6] = attempted concentration 0.1 mg/mL
[7] = attempted concentration 0.5 mg/mL
[8] = attempted concentration 1 mg/mL
[9] = attempted concentration 5 mg/mL
[10] = attempted concentration 10 mg/mL

## O=C(O)Cc1nn(Cc2nc3cc(C(F)(F)F)ccc3s2)c(=O)c2nccnc12 [Compound A, 2-(8-oxo-7-((5-(trifluoromethyl)benzo[d]thiazol-2-yl)methyl)-7,8-dihydropyrazino[2,3-d]pyridazin-5-yl)acetic acid]
[1]
  inhibition at 0.0001 µM: 69 ± 1.3%
  inhibition at 0.001 µM: 79.6 ± 2.4%
  inhibition at 0.01 µM: 80 ± 1.8%
  inhibition at 0.1 µM: 89.2 ± 0.7%
  inhibition at 1 µM: 93.6 ± 2.8%
  inhibition at 10 µM: 95.3 ± 1.1%
  inhibition at 100 µM: 96.2 ± 3.3%
[1]; fold relative to zopolrestat
  more active than zopolrestat in vitro against aldose reductase: approximately 100 x
[2]; ambient temperature, all concentrations
  solubility in pH 7.1 water relative to Zopolrestat: significantly greater solubility
[2]; [5]
  Area (Integration of Absorbance Peaks): 1811131
[2]; [6]
  Area (Integration of Absorbance Peaks): 3221003
[2]; [7]
  Area (Integration of Absorbance Peaks): 5814304
[2]; [8]
  Area (Integration of Absorbance Peaks): 10515430
[2]; [9]
  Area (Integration of Absorbance Peaks): 17216187
[2]; [10]
  Area (Integration of Absorbance Peaks): 20397336
[3]
  solubility in Krebs-Henseleit buffer: soluble without ay precipitation or turbidity
[4]
  CK Release: Compound A treated Rat hearts = 425±63 IU/g wet weight
  LVDP Recovery: Compound A Treated Rat Hearts = 76±5 % of pre-ischemic values

## O=C(O)Cc1nn(Cc2nc3cc(C(F)(F)F)ccc3s2)c(=O)c2ccccc12 [zopolrestat, reference compound]
[1]
  inhibition at 0.0001 µM: 31.7 ± 5.1%
  inhibition at 0.001 µM: 39.3 ± 4.3%
  inhibition at 0.01 µM: 52.2 ± 1.9%
  inhibition at 0.1 µM: 76.7 ± 2.7%
  inhibition at 1 µM: 86.3 ± 3.6%
  inhibition at 10 µM: 90.1 ± 3.4%
  inhibition at 100 µM: 93.2 ± 3.8%
[2]; [5]
  Area (Integration of Absorbance Peaks): 1039247
[2]; [6]
  Area (Integration of Absorbance Peaks): 1899466
[2]; [7]
  Area (Integration of Absorbance Peaks): 4304556
[2]; [8]
  Area (Integration of Absorbance Peaks): 6129559
[2]; [9]
  Area (Integration of Absorbance Peaks): 13314544
[2]; [10]
  Area (Integration of Absorbance Peaks): 13362465
[3]
  solubility in Krebs-Henseleit buffer: heat was applied to render zopolrestat soluble
